Experimental data reported in patent publication US20100022531A1, “NOVEL COMPOUNDS AS P2X7 MODULATORS AND USES THEREOF” (RENOVIS, INC., priority 2005, published 2010).

biological target: T1, P2X7 receptor (Homo sapiens, UniProt Q99572); test: Alternate method for IL-1β release assay (differentiated THP-1 cells, BzATP-stimulated, ELISA); assay type: cell-based; settings: P2X7; 0.1 μM compound (plus symbols); read-out: IL-1β % inhib @ 0.1 μM
T1 construct: host or cells: THP-1 cells differentiated with LPS and IFN-γ
T1 sequence (Q99572 1-595): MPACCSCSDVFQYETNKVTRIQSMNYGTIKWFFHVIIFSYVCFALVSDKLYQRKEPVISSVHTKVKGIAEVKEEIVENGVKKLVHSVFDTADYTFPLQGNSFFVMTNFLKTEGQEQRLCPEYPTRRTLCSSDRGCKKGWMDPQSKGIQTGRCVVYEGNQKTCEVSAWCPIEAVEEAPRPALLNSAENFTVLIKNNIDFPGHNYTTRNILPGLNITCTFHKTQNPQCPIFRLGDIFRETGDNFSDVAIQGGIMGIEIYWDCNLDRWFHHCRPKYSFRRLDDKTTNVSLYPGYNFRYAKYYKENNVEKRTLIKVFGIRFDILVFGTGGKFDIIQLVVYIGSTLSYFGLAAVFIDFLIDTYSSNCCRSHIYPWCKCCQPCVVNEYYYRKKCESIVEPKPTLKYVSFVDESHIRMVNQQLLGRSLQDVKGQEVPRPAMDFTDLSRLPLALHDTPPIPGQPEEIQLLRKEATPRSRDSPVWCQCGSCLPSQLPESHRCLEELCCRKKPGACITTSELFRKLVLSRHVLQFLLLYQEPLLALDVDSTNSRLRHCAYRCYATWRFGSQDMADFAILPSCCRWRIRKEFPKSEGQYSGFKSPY
Protocol: Alternate Method for IL-1β Release Assay
THP-1 cells (ATCC Cat #285-IF-100) are plated in 96 well plates at a concentration of 200,000 cells per well and allowed to differentiate in RPMI-1640 media (ATCC Cat #30-2001) containing 10% FBS, 100 IU/mL penicillin, 100 ug/mL streptomycin, 100 ng/mL LPS and 100 ng/mL IFN-γ for 16 hours. Following differentiation, the cells are treated for an additional 2 hours in RPMI-1640 media containing 100 IU/mL penicillin, 100 ug/mL streptomycin and fresh LPS at 100 ng/mL. The cells are then pretreated for 30 minutes with the compound of interest at the appropriate concentration in RPMI media containing 100 IU/mL penicillin, 100 ug/mL streptomycin. Following the pretreatment 2′,3′-O-(4-benzoylbenzoyl)-adenosine 5′-triphosphate (Sigma Aldrich Cat# B6396) is added to a final concentration of 250 uM and the cells incubated for an additional 45 minutes. 30 uL of cell supernatant is then collected and IL-1β levels determined via ELISA (R&D systems Cat. # HSLB50) according to manufacturers recommendations using the Tecan Safire plate reader. Background adjusted IL-1β levels of drug treated and non-treated cells are used to calculate the percent inhibition.

Structure (SMILES) | inhibition at 0.1 µM [%]
O=S(=O)(c1ccc(Oc2ccccc2)cc1)N1CCc2c(ncnc2NCC23CC4CC(CC(C4)C2)C3)C1 [Compound 47] | 50 to 75
O=S(=O)(c1ccccc1-c1ccccc1)N1CCc2c(ncnc2NCC23CC4CC(CC(C4)C2)C3)C1 [Compound 50] | 25 to 50
O=S(=O)(c1ccc(F)cc1F)N1CCc2c(ncnc2NCC23CC4CC(CC(C4)C2)C3)C1 [Compound 66] | 25 to 50
O=C(c1c(Cl)cccc1Cl)N1CCc2c(ncnc2NCC23CC4CC(CC(C4)C2)C3)C1 [Compound 75] | > 75
O=C(c1ccccc1)N1CCc2c(ncnc2NCC23CC4CC(CC(C4)C2)C3)C1 [Compound 77, {4-[(Adamantan-1-ylmethyl)-amino]-5,8-dihydro-6H-pyrido[3,4-d]pyrimidin-7-yl}-phenyl-methanone] | > 75
O=C(c1cccc(F)c1)N1CCc2c(ncnc2NCC23CC4CC(CC(C4)C2)C3)C1 [Compound 83] | > 75

same assay, conditions: P2X7; 0.3 μM compound (asterisk symbols); read-out: IL-1β % inhib @ 0.3 μM

Structure (SMILES) | inhibition at 0.3 µM [%]
O=S(=O)(c1ccc(Oc2ccccn2)cc1)N1CCc2c(ncnc2NCC23CC4CC(CC(C4)C2)C3)C1 [Compound 29] | > 75
O=S(=O)(c1ccc(Oc2ccncc2)cc1)N1CCc2c(ncnc2NCC23CC4CC(CC(C4)C2)C3)C1 [Compound 31] | 25 to 50
COc1ccc(Oc2ccc(S(=O)(=O)N3CCc4c(ncnc4NCC45CC6CC(CC(C6)C4)C5)C3)cc2)cc1 [Compound 32] | 0 to 25
O=S(=O)(c1ccc(Oc2ccc(C(F)(F)F)cc2)cc1)N1CCc2c(ncnc2NCC23CC4CC(CC(C4)C2)C3)C1 [Compound 33] | 0 to 25
O=S(=O)(c1cccc(Oc2ccc(Cl)c(Cl)c2)c1)N1CCc2c(ncnc2NCC23CC4CC(CC(C4)C2)C3)C1 [Compound 34] | 0 to 25
COc1ccc(-c2ccc(S(=O)(=O)N3CCc4c(ncnc4NCC45CC6CC(CC(C6)C4)C5)C3)cc2)cc1 [Compound 35] | 0 to 25
O=S(=O)(c1cc(C(F)(F)F)ccc1Cl)N1CCc2c(ncnc2NCC23CC4CC(CC(C4)C2)C3)C1 [Compound 37] | 25 to 50
O=S(=O)(Cc1cc(C(F)(F)F)cc(C(F)(F)F)c1)N1CCc2c(ncnc2NCC23CC4CC(CC(C4)C2)C3)C1 [Compound 38] | 0 to 25
O=S(=O)(Cc1ccc(C(F)(F)F)cc1)N1CCc2c(ncnc2NCC23CC4CC(CC(C4)C2)C3)C1 [Compound 39] | 0 to 25
O=S(=O)(Cc1ccc(F)cc1)N1CCc2c(ncnc2NCC23CC4CC(CC(C4)C2)C3)C1 [Compound 40] | 0 to 25
O=S(=O)(Cc1ccc(Cl)c(Cl)c1)N1CCc2c(ncnc2NCC23CC4CC(CC(C4)C2)C3)C1 [Compound 41] | 0 to 25
O=S(=O)(Cc1cc(Cl)cc(Cl)c1)N1CCc2c(ncnc2NCC23CC4CC(CC(C4)C2)C3)C1 [Compound 42] | 25 to 50
O=S(=O)(Cc1cccc(C(F)(F)F)c1)N1CCc2c(ncnc2NCC23CC4CC(CC(C4)C2)C3)C1 [Compound 43] | 25 to 50
O=S(=O)(Cc1ccc(Cl)cc1)N1CCc2c(ncnc2NCC23CC4CC(CC(C4)C2)C3)C1 [Compound 45] | 25 to 50
O=S(=O)(c1ccc(OC(F)F)cc1)N1CCc2c(ncnc2NCC23CC4CC(CC(C4)C2)C3)C1 [Compound 46] | 25 to 50
O=S(=O)(c1ccccc1Cl)N1CCc2c(ncnc2NCC23CC4CC(CC(C4)C2)C3)C1 [Compound 48] | > 75
O=S(=O)(c1ccc(F)c(Cl)c1)N1CCc2c(ncnc2NCC23CC4CC(CC(C4)C2)C3)C1 [Compound 49] | 50 to 75
O=S(=O)(c1ccccc1C(F)(F)F)N1CCc2c(ncnc2NCC23CC4CC(CC(C4)C2)C3)C1 [Compound 51] | 0 to 25
O=S(=O)(c1ccc(-n2cccn2)cc1)N1CCc2c(ncnc2NCC23CC4CC(CC(C4)C2)C3)C1 [Compound 52] | 0 to 25
COc1ccc(S(=O)(=O)N2CCc3c(ncnc3NCC34CC5CC(CC(C5)C3)C4)C2)c(OC)c1 [Compound 53] | 50 to 75
Cc1nn(C)c(C)c1S(=O)(=O)N1CCc2c(ncnc2NCC23CC4CC(CC(C4)C2)C3)C1 [Compound 54] | 0 to 25
O=S(=O)(c1ccccc1OC(F)(F)F)N1CCc2c(ncnc2NCC23CC4CC(CC(C4)C2)C3)C1 [Compound 55] | 0 to 25
Cc1ccccc1S(=O)(=O)N1CCc2c(ncnc2NCC23CC4CC(CC(C4)C2)C3)C1 [Compound 56] | 25 to 50
O=S(=O)(c1ccc2c(c1)OCCO2)N1CCc2c(ncnc2NCC23CC4CC(CC(C4)C2)C3)C1 [Compound 57] | 50 to 75
O=S(=O)(c1ccc(C(F)(F)F)cc1)N1CCc2c(ncnc2NCC23CC4CC(CC(C4)C2)C3)C1 [Compound 58] | 0 to 25

Structure (SMILES) | inhibition at 0.3 µM [%]
O=S(=O)(c1ccc(Cl)cc1F)N1CCc2c(ncnc2NCC23CC4CC(CC(C4)C2)C3)C1 [Compound 59] | 25 to 50
O=S(=O)(c1cc(F)ccc1F)N1CCc2c(ncnc2NCC23CC4CC(CC(C4)C2)C3)C1 [Compound 60] | 25 to 50
O=S(=O)(c1cc(Cl)ccc1Cl)N1CCc2c(ncnc2NCC23CC4CC(CC(C4)C2)C3)C1 [Compound 61] | 50 to 75
O=S(=O)(c1cc(Cl)ccc1F)N1CCc2c(ncnc2NCC23CC4CC(CC(C4)C2)C3)C1 [Compound 62] | 25 to 50
O=S(=O)(c1c(F)cccc1F)N1CCc2c(ncnc2NCC23CC4CC(CC(C4)C2)C3)C1 [Compound 63] | > 75
Cc1ccc(S(=O)(=O)N2CCc3c(ncnc3NCC34CC5CC(CC(C5)C3)C4)C2)cc1Cl [Compound 64] | 25 to 50
O=S(=O)(c1cc(Cl)cc(Cl)c1)N1CCc2c(ncnc2NCC23CC4CC(CC(C4)C2)C3)C1 [Compound 65] | 0 to 25
O=S(=O)(c1c(Cl)cccc1Cl)N1CCc2c(ncnc2NCC23CC4CC(CC(C4)C2)C3)C1 [Compound 67] | > 75
O=S(=O)(c1ccc(F)cc1Cl)N1CCc2c(ncnc2NCC23CC4CC(CC(C4)C2)C3)C1 [Compound 68] | 0 to 25
Cc1ccc(F)cc1S(=O)(=O)N1CCc2c(ncnc2NCC23CC4CC(CC(C4)C2)C3)C1 [Compound 69] | 0 to 25
CC(C)S(=O)(=O)N1CCc2c(ncnc2NCC23CC4CC(CC(C4)C2)C3)C1 [Compound 70] | 50 to 75
COc1ccc(C)cc1S(=O)(=O)N1CCc2c(ncnc2NCC23CC4CC(CC(C4)C2)C3)C1 [Compound 71] | 25 to 50
COc1ccc(OC)c(S(=O)(=O)N2CCc3c(ncnc3NCC34CC5CC(CC(C5)C3)C4)C2)c1 [Compound 72] | 25 to 50
Cc1cc(C)cc(S(=O)(=O)N2CCc3c(ncnc3NCC34CC5CC(CC(C5)C3)C4)C2)c1 [Compound 73] | 0 to 25
N#Cc1ccccc1S(=O)(=O)N1CCc2c(ncnc2NCC23CC4CC(CC(C4)C2)C3)C1 [Compound 74] | 25 to 50
COc1ccc(CC(=O)N2CCc3c(ncnc3NCC34CC5CC(CC(C5)C3)C4)C2)cc1 [Compound 80] | > 75
O=C(Cc1ccccc1)N1CCc2c(ncnc2NCC23CC4CC(CC(C4)C2)C3)C1 [Compound 81] | 50 to 75
O=C(c1ccc(Cl)cc1)N1CCc2c(ncnc2NCC23CC4CC(CC(C4)C2)C3)C1 [Compound 82] | 25 to 50
O=C(c1ccc(OC(F)(F)F)cc1)N1CCc2c(ncnc2NCC23CC4CC(CC(C4)C2)C3)C1 [Compound 84] | 0 to 25
CCc1ccc(C(=O)N2CCc3c(ncnc3NCC34CC5CC(CC(C5)C3)C4)C2)cc1 [Compound 85] | 50 to 75
Cc1cccc(C(=O)N2CCc3c(ncnc3NCC34CC5CC(CC(C5)C3)C4)C2)c1 [Compound 86] | > 75
O=C(c1ccc(F)c(F)c1)N1CCc2c(ncnc2NCC23CC4CC(CC(C4)C2)C3)C1 [Compound 88] | > 75
O=C(c1cccc(C(F)(F)F)c1)N1CCc2c(ncnc2NCC23CC4CC(CC(C4)C2)C3)C1 [Compound 89] | 25 to 50
COc1ccc(C(=O)N2CCc3c(ncnc3NCC34CC5CC(CC(C5)C3)C4)C2)cc1 [Compound 90] | 0 to 25
O=C(C(c1ccccc1)c1ccccc1)N1CCc2c(ncnc2NCC23CC4CC(CC(C4)C2)C3)C1 [Compound 92] | 0 to 25
